From patent publication US11584710B2, “Compounds for treating infections” (HORITZONTS TECNOLOGICS HUNGARY KORLÁTOLT FELELOSSÉGU …, priority 2017, dated 2023)

Tests used:
Format in all cases: cell-based
A. flavus = experiment: Antifungal disk diffusion susceptibility test (CLSI M44); settings: Aspergillus flavus, A. flavus; for zone of inhibition at 150 µg/disc: 150 μg/disc; for zone of inhibition at 500 µg/disc: 500 μg/disc
Description: (§1) Filamentous fungi and yeasts strains, from clinical origin, were supplied by Microbiology Service from The Princess Hospital, Madrid. They are detailed in Table IX.
(§2) Filamentous fungi and yeast cells suspensions in distilled water was prepared from a culture of 24-48 h, depending on species, in Sabouraud agar. Each suspension was adjusted to a fixed size inoculum of 1-5×10^8 CFU/ml with a spectrophotometer (Ferraro, MJ National Committee for Clinical Laboratory Standards. 2000).
(§3) Antifungal susceptibility tests were developed following the standardized methodology detailed in document CLSI: M44-4: Method for Antifungal Disk diffusion susceptibility testing of yeasts consisting of disk diffusion on agar Muller-Hinton (supplemented with 2% glucose).

A. fumigatus = experiment: as above; settings: Aspergillus fumigatus, A. fumigatus; for zone of inhibition at 150 µg/disc: 150 μg/disc; for zone of inhibition at 500 µg/disc: 500 μg/disc
Description: as §1, §2, §3

A. niger = experiment: as above; settings: Aspergillus niger, A. niger; for zone of inhibition at 150 µg/disc: 150 μg/disc; for zone of inhibition at 500 µg/disc: 500 μg/disc
Description: as §1, §2, §3

A. terreus = experiment: as above; settings: Aspergillus terreus, A. terreus; for zone of inhibition at 150 µg/disc: 150 μg/disc; for zone of inhibition at 500 µg/disc: 500 μg/disc
Description: as §1, §2, §3

C. albicans = experiment: as above; settings: Candida albicans, C. albicans; for zone of inhibition at 150 µg/disc: 150 μg/disc; for zone of inhibition at 500 µg/disc: 500 μg/disc
Description: as §1, §2, §3

C. guillermondii = experiment: as above; settings: C. guillermondii; for zone of inhibition at 150 µg/disc: 150 μg/disc; for zone of inhibition at 500 µg/disc: 500 μg/disc
Description: as §1, §2, §3

C. lusitaniae = experiment: as above; settings: Clavispora lusitaniae, C. lusitaniae; for zone of inhibition at 150 µg/disc: 150 μg/disc; for zone of inhibition at 500 µg/disc: 500 μg/disc
Description: as §1, §2, §3

C. parapsilosis = experiment: as above; settings: Lodderomyces parapsilosis, C. parapsilosis; for zone of inhibition at 150 µg/disc: 150 μg/disc; for zone of inhibition at 500 µg/disc: 500 μg/disc
Description: as §1, §2, §3

C. tropicalis = experiment: as above; settings: Candida tropicalis, C. tropicalis; for zone of inhibition at 150 µg/disc: 150 μg/disc; for zone of inhibition at 500 µg/disc: 500 μg/disc
Description: as §1, §2, §3

S. cerevisiae = experiment: as above; settings: Saccharomyces cerevisiae, S. cerevisiae; for zone of inhibition at 150 µg/disc: 150 μg/disc; for zone of inhibition at 500 µg/disc: 500 μg/disc
Description: as §1, §2, §3

A. baumannii = experiment: Kirby-Bauer disk diffusion susceptibility test; settings: 300 μg/disc
Description: (§4) Bacterial strains, from clinical origin, were supplied by the National Center for Microbiology, Institute of Health Carlos III (Majadahonda, Madrid). They are detailed in Table 1.
(§5) Bacterial cells suspension in sterile saline was prepared from a culture of 24-72 h, depending on bacterial species, in Mueller-Hinton Agar with 5% sheep blood. Each suspension was adjusted to a fixed size inoculum of 1-5×10^8 CFU/ml with a spectrophotometer (Ferraro, MJ National Committee for Clinical Laboratory Standards. 2000).
(§6) Kirby-Bauer disk diffusion susceptibility test protocol was utilized to determine the sensitivity or resistance of pathogenic bacteria against the compounds and others antibiotics. The absence of growth around the disks is an indirect measure of the ability of this compound to inhibit an organism (Kirby, W., et al., Antibiotics Annu. 1956-1957:892). After 18 to 72 hours of incubation at 37° C., with or without CO2, under aerobic or anaerobic conditions, depending on the bacterial species, halo of growth inhibition were obtained and evaluated.
(§7) Interpretation of susceptibility and resistance was based on the presence or absence of a zone of inhibition surrounding the disk. Kirby-Bauer disk diffusion susceptibility test is a common method which uses antibiotic-impregnated wafers to test whether bacteria are affected by antibiotics. The size of the zone of inhibition depends on how effective the antibiotic is at stopping the growth of the bacterium. A stronger antibiotic will create a larger zone, because a lower concentration of the antibiotic is enough to stop growth.
(§8) All compounds were tested at 300 μg/disc.

N. carnea = experiment: Kirby-Bauer disk diffusion susceptibility test; settings: 300 μg/disc
Description: as §4, §5, §6, §7, §8

N. cyriacigeorgica = experiment: Kirby-Bauer disk diffusion susceptibility test; settings: 300 μg/disc
Description: as §4, §5, §6, §7, §8

T. pulmonis = experiment: Kirby-Bauer disk diffusion susceptibility test; settings: 300 μg/disc
Description: as §4, §5, §6, §7, §8

Row | Compound | zone of inhibition at 150 µg/disc (A. flavus) | zone of inhibition at 500 µg/disc (A. flavus) | zone of inhibition at 150 µg/disc (A. fumigatus) | zone of inhibition at 500 µg/disc (A. fumigatus) | zone of inhibition at 150 µg/disc (A. niger) | zone of inhibition at 500 µg/disc (A. niger) | zone of inhibition at 150 µg/disc (A. terreus) | zone of inhibition at 500 µg/disc (A. terreus) | zone of inhibition at 150 µg/disc (C. albicans) | zone of inhibition at 500 µg/disc (C. albicans) | zone of inhibition at 150 µg/disc (C. guillermondii) | zone of inhibition at 500 µg/disc (C. guillermondii) | zone of inhibition at 150 µg/disc (C. lusitaniae) | zone of inhibition at 500 µg/disc (C. lusitaniae) | zone of inhibition at 150 µg/disc (C. parapsilosis) | zone of inhibition at 500 µg/disc (C. parapsilosis) | zone of inhibition at 150 µg/disc (C. tropicalis) | zone of inhibition at 500 µg/disc (C. tropicalis) | zone of inhibition at 150 µg/disc (S. cerevisiae) | zone of inhibition at 500 µg/disc (S. cerevisiae) | also measured
1 | NNC(=O)CC(=O)NNc1ccccc1 [MSG-187] | < 10 mm | 36 mm | < 10 mm | 32 mm | < 10 mm | 40 mm | < 10 mm | < 10 mm | < 10 mm | 22 mm | < 10 mm | 22 mm | < 10 mm | 20 mm | < 10 mm | 17 mm | < 10 mm | 18 mm | < 10 mm | < 10 mm | 
2 | NNC(=O)C(=O)NNc1ccc(F)cc1 [MSG-193] | 15 mm | > 40 mm | 20 mm | > 40 mm | 15 mm | > 40 mm | 12 mm | 32 mm | 20 mm | > 40 mm | 20 mm | 40 mm | 15 mm | > 40 mm | 18 mm | > 40 mm | 30 mm | > 40 mm | 22 mm | 40 mm | 
3 | COc1ccc(NNC(=O)C(=O)NN)cc1 [MSG-210] | 10 mm | 9 mm | 10 mm | 16 mm | 27 mm | 40 mm | 19 mm | 22 mm | 32 mm | > 40 mm | 32 mm | 35 mm | 39 mm | > 40 mm | 28 mm | 32 mm | 34 mm | 36 mm | 28 mm | 30 mm | Activity detected (mm) (A. baumannii): 18 mm; Activity detected (mm) (N. carnea): 11 mm; Activity detected (mm) (N. cyriacigeorgica): 15 mm; Activity detected (mm) (T. pulmonis): 20 mm
